Results published in PubChem BioAssay (NCI).
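Following 48 hours of exposure in 96-well plates, responses at five concentrations were used to interpolate endpoints linearly. At the GI50, growth is halved. TGI is the concentration that stops growth completely.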

Tests used:
Test in all cases: NCI tumour cell line growth inhibition, 48 h
[1] = system: 786-0 renal
[2] = system: A498 renal
[3] = system: A549 NSCLC
[4] = system: ACHN renal
[5] = system: BT-549 breast
[6] = system: CAKI-1 renal
[7] = system: CCRF-CEM leukemia
[8] = system: COLO 205 colon
[9] = system: DU-145 prostate
[10] = system: EKVX NSCLC
[11] = system: HCC-2998 colon
[12] = system: HCT-116 colon
[13] = system: HCT-15 colon
[14] = system: HL-60(TB) leukemia
[15] = system: HOP-62 NSCLC
[16] = system: HOP-92 NSCLC
[17] = system: HS 578T breast
[18] = system: HT29 colon
[19] = system: IGROV1 ovarian
[20] = system: K-562 leukemia
[21] = system: KM12 colon
[22] = system: LOX IMVI melanoma
[23] = system: M14 melanoma
[24] = system: MALME-3M melanoma
[25] = system: MCF7 breast
[26] = system: MDA-MB-231 breast
[27] = system: MDA-MB-435
[28] = system: MOLT-4 leukemia
[29] = system: NCI-H226 lung
[30] = system: NCI-H23 lung
[31] = system: NCI-H460 lung
[32] = system: NCI-H522 lung
[33] = system: NCI/ADR-RES ovarian
[34] = system: OVCAR-3 ovarian
[35] = system: OVCAR-4 ovarian
[36] = system: OVCAR-5 ovarian
[37] = system: OVCAR-8 ovarian
[38] = system: PC-3 prostate
[39] = system: RPMI-8226 leukemia
[40] = system: RXF 393 renal
[41] = system: SF-268 CNS
[42] = system: SF-295 CNS
[43] = system: SF-539 CNS
[44] = system: SK-MEL-2 melanoma
[45] = system: SK-MEL-28 melanoma
[46] = system: SK-MEL-5 melanoma
[47] = system: SK-OV-3 ovarian
[48] = system: SN12C renal
[49] = system: SNB-19 CNS
[50] = system: SNB-75 CNS
[51] = system: SR leukemia
[52] = system: SW-620 colon
[53] = system: T-47D breast
[54] = system: TK-10 renal
[55] = system: U251 CNS
[56] = system: UACC-257 melanoma
[57] = system: UACC-62 melanoma
[58] = system: UO-31 renal

c1ccc2cc(C[n+]3ccn(CCCCCCCCCCCCn4cc[n+](Cc5ccc6ccccc6c5)c4)c3)ccc2c1
GI50 [1]: 1.73 µM
TGI [1]: 6.93 µM
GI50 [2]: 0.515 µM
TGI [2]: 1.62 µM
GI50 [3]: 0.744 µM
TGI [3]: 3.57 µM
GI50 [4]: 1.33 µM
TGI [4]: 7.71 µM
GI50 [5]: 0.467 µM
TGI [5]: 1.17 µM
GI50 [6]: 3.55 µM
TGI [6]: 25 µM
GI50 [7]: 0.732 µM
TGI [7]: 2.4 µM
GI50 [8]: 0.441 µM
TGI [8]: 0.833 µM
GI50 [9]: 1.03 µM
TGI [9]: 3.8 µM
GI50 [10]: 0.894 µM
TGI [10]: 4.2 µM
GI50 [11]: 1.09 µM
TGI [11]: 4.74 µM
GI50 [12]: 0.848 µM
TGI [12]: 3.21 µM
GI50 [13]: 1.48 µM
TGI [13]: 9.15 µM
GI50 [14]: 0.545 µM
TGI [14]: 1.08 µM
GI50 [15]: 0.815 µM
TGI [15]: 2.65 µM
GI50 [16]: 0.5 µM
TGI [16]: 1.4 µM
GI50 [17]: 0.693 µM
TGI [17]: 2.48 µM
GI50 [18]: 0.693 µM
TGI [18]: 1.87 µM
GI50 [19]: 0.521 µM
TGI [19]: 1.16 µM
GI50 [20]: 0.429 µM
TGI [20]: 1.19 µM
GI50 [21]: 0.553 µM
TGI [21]: 1.41 µM
GI50 [22]: 0.483 µM
TGI [22]: 0.941 µM
GI50 [23]: 0.835 µM
TGI [23]: 3.5 µM
GI50 [24]: 0.469 µM
TGI [24]: 1.25 µM
GI50 [25]: 0.512 µM
TGI [25]: 1.17 µM
GI50 [26]: 0.866 µM
TGI [26]: 2.88 µM
GI50 [27]: 0.682 µM
TGI [27]: 2.53 µM
GI50 [28]: 0.508 µM
TGI [28]: 1.02 µM
GI50 [29]: 0.984 µM
TGI [29]: 5.52 µM
GI50 [30]: 0.722 µM
TGI [30]: 2.4 µM
GI50 [31]: 0.814 µM
TGI [31]: 2.96 µM
GI50 [32]: 0.47 µM
TGI [32]: 1.25 µM
GI50 [33]: 8.09 µM
TGI [33]: 25 µM
GI50 [34]: 0.763 µM
TGI [34]: 2.4 µM
GI50 [35]: 0.694 µM
TGI [35]: 2.53 µM
GI50 [36]: 0.863 µM
TGI [36]: 3.68 µM
GI50 [37]: 0.783 µM
TGI [37]: 2.89 µM
GI50 [38]: 0.794 µM
TGI [38]: 2.81 µM
GI50 [39]: 0.898 µM
TGI [39]: 4.15 µM
GI50 [40]: 0.546 µM
TGI [40]: 1.67 µM
GI50 [41]: 0.746 µM
TGI [41]: 3.01 µM
GI50 [42]: 0.654 µM
TGI [42]: 2.13 µM
GI50 [43]: 0.807 µM
TGI [43]: 2.91 µM
GI50 [44]: 0.573 µM
TGI [44]: 1.27 µM
GI50 [45]: 0.779 µM
TGI [45]: 2.86 µM
GI50 [46]: 0.502 µM
TGI [46]: 1.04 µM
GI50 [47]: 0.661 µM
TGI [47]: 1.8 µM
GI50 [48]: 0.652 µM
TGI [48]: 2.09 µM
GI50 [49]: 0.773 µM
TGI [49]: 3.49 µM
GI50 [50]: 0.381 µM
TGI [50]: 1.34 µM
GI50 [51]: 0.679 µM
TGI [51]: 1.67 µM
GI50 [52]: 0.815 µM
TGI [52]: 3.3 µM
GI50 [53]: 0.554 µM
TGI [53]: 1.78 µM
GI50 [54]: 0.992 µM
TGI [54]: 4.45 µM
GI50 [55]: 0.521 µM
TGI [55]: 2.53 µM
GI50 [56]: 0.589 µM
TGI [56]: 1.53 µM
GI50 [57]: 0.725 µM
TGI [57]: 2.43 µM
GI50 [58]: 2.66 µM
TGI [58]: 8.74 µM

CC1(C)CN(c2cc(C(F)(F)F)cc3cncn23)CCC12NC(=O)NC2=O (configuration not stated)
GI50 [1]: 32.8 µM
TGI [1]: > 100 µM
GI50 [2]: 16.8 µM
TGI [2]: 55.3 µM
GI50 [3]: 38 µM
TGI [3]: > 100 µM
GI50 [4]: 33.7 µM
TGI [4]: > 100 µM
GI50 [5]: 23.2 µM
TGI [5]: > 100 µM
GI50 [6]: 19.2 µM
TGI [6]: 92 µM
GI50 [7]: 35.6 µM
TGI [7]: > 100 µM
GI50 [8]: 41.9 µM
TGI [8]: > 100 µM
GI50 [9]: 56.2 µM
TGI [9]: > 100 µM
GI50 [10]: 4.33 µM
TGI [10]: 40.6 µM
GI50 [11]: 72.5 µM
TGI [11]: > 100 µM
GI50 [12]: 26.3 µM
TGI [12]: > 100 µM
GI50 [13]: 32.4 µM
TGI [13]: > 100 µM
GI50 [14]: 22 µM
TGI [14]: 48.9 µM
GI50 [15]: 40.3 µM
TGI [15]: > 100 µM
GI50 [16]: 20.1 µM
TGI [16]: 86.5 µM
GI50 [17]: 21.1 µM
TGI [17]: 90.1 µM
GI50 [18]: 50.9 µM
TGI [18]: > 100 µM
GI50 [19]: 30.5 µM
TGI [19]: > 100 µM
GI50 [20]: 40.9 µM
TGI [20]: > 100 µM
GI50 [21]: 45.1 µM
TGI [21]: > 100 µM
GI50 [22]: 30.1 µM
TGI [22]: > 100 µM
GI50 [23]: 33.4 µM
TGI [23]: > 100 µM
GI50 [24]: 42.3 µM
TGI [24]: > 100 µM
GI50 [25]: 24.2 µM
TGI [25]: > 100 µM
GI50 [26]: 29.2 µM
TGI [26]: > 100 µM
GI50 [27]: 42.2 µM
TGI [27]: > 100 µM
GI50 [28]: 24.3 µM
TGI [28]: > 100 µM
GI50 [29]: 33.5 µM
TGI [29]: > 100 µM
GI50 [30]: 35.5 µM
TGI [30]: > 100 µM
GI50 [31]: 40.5 µM
TGI [31]: > 100 µM
GI50 [32]: 28.9 µM
TGI [32]: > 100 µM
GI50 [33]: 67.5 µM
TGI [33]: > 100 µM
GI50 [34]: 38.5 µM
TGI [34]: > 100 µM
GI50 [35]: 31.6 µM
TGI [35]: > 100 µM
GI50 [36]: 66.1 µM
TGI [36]: > 100 µM
GI50 [37]: 36 µM
TGI [37]: > 100 µM
GI50 [38]: 24.4 µM
TGI [38]: > 100 µM
GI50 [39]: 30.5 µM
TGI [39]: > 100 µM
GI50 [40]: 17.5 µM
TGI [40]: 61.1 µM
GI50 [41]: 38.7 µM
TGI [41]: > 100 µM
GI50 [42]: 30.3 µM
TGI [42]: > 100 µM
GI50 [43]: 42.5 µM
TGI [43]: > 100 µM
GI50 [44]: 32.4 µM
TGI [44]: > 100 µM
GI50 [45]: 49.9 µM
TGI [45]: > 100 µM
GI50 [46]: 18.1 µM
TGI [46]: 35.4 µM
GI50 [47]: 36.9 µM
TGI [47]: > 100 µM
GI50 [48]: 36.2 µM
TGI [48]: > 100 µM
GI50 [49]: 46.8 µM
TGI [49]: > 100 µM
GI50 [50]: 16.3 µM
TGI [50]: 68.5 µM
GI50 [51]: 48.5 µM
TGI [51]: > 100 µM
GI50 [52]: 52.6 µM
TGI [52]: > 100 µM
GI50 [53]: 21.4 µM
TGI [53]: > 100 µM
GI50 [54]: 37.8 µM
TGI [54]: > 100 µM
GI50 [55]: 37.5 µM
TGI [55]: > 100 µM
GI50 [56]: 52.7 µM
TGI [56]: > 100 µM
GI50 [57]: 27.7 µM
TGI [57]: > 100 µM
GI50 [58]: 21.1 µM
TGI [58]: 83.7 µM
